pEC50, pIC50: −log10 of the molar value.
Legend:
[1] = Liver Microsome Stability Assay (mouse); conditions: mouse liver microsomes, with NADPH, 1.0 uM compound
Description: (§1) Stability of a compound was assessed in the presence of liver microsomes from various sources—mouse, rat, monkey and human liver microsomes. 1.0 uM compound, 0.4% DMSO in 0.1 M Potassium Phosphate with 1.0 mg/mL liver microsomes, were incubated at 37° C. with or without 1 mM NADPH. The samples were quenched at 0, and 30 minutes.

[2] = test system: IL-2-FL/Gaussia Luciferase; assay: Dox Induced IL2-FL-Gluc Assay; format: cell-based; conditions: for pIC50: 24 hr Dox induction, 293FRT/TO cells, mean, read-out: 24 hr Dox Inducible IL2FLGluc 293FRT/TO: Mean IC50; for 24 hr Dox Inducible IL2FLGluc 293FRT/TO: IL2/PD1: ratio of IL2FLGluc IC50 to PD1ssGluc IC50, '<=>' given where both are I.A.
Outline: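 Cells are plated one day ahead, then receive compound dilutions in DMSO/media with doxycycline and incubate at 37° C, 5% CO2. They are Flp-In 293 T-REx cells expressing a full-length IL-2 (amino acids 1-153)–Gaussia luciferase fusion under T-REx control.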

[3] = test system: PD1-ss+10aa/Gaussia Luciferase; assay: Dox-Induced PD1-ss-Gluc Assay; format: cell-based; conditions: 24 hr Dox induction; 293FRT/TO cells; mean; read-out: 24 hr Dox Inducible PD1ssGluc 293FRT/TO: Mean IC50
Outline: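 Flp-In 293 T-REx cells stably carrying a doxycycline-inducible Gaussia luciferase fused to the PD1 signal sequence plus 10 aa were plated the day before. Compound dilutions in DMSO/media containing doxycycline were then added and incubated at 37 °C, 5% CO2. Data for undefined stereochemistry refer to stereoisomer mixtures.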

[4] = Liver Microsome Stability Assay (rat); conditions: rat liver microsomes, with NADPH, 1.0 uM compound
Description: as §1

[5] = test system: TNFα-FL/Gaussia Luciferase; assay: Dox Induced TNFα-FL-Gluc Assay; format: cell-based; conditions: for pIC50: 24 hr Dox induction, 293FRT/TO cells, mean, read-out: 24 hr Dox Inducible TNFaFLGluc 293FRT/TO: Mean IC50; for 24 hr Dox Inducible TNFaFLGluc 293FRT/TO: TNF/PD1: ratio of TNFaFLGluc IC50 to PD1ssGluc IC50, '<=>' given where both are I.A.
Outline: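 Stereoisomer mixtures were tested where stereochemistry is not drawn. Induction used doxycycline added together with compound dilutions in DMSO/media to Flp-In 293 T-REx cells carrying a T-REx-regulated TNFα (aa 1-233)-Gaussia luciferase construct, then incubated at 37 °C, 5% CO2.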

[6] = Liver Microsome Stability Assay (human); conditions: human liver microsomes, with NADPH, 1.0 uM compound
Description: as §1

[7] = Liver Microsome Stability Assay (monkey); conditions: monkey liver microsomes, with NADPH, 1.0 uM compound
Description: as §1

[8] = test system: multiple myeloma cell line NCI-H929; assay: H929 Cell Viability Assay; format: cell-based, human; conditions: Homo sapiens, NCI-H929, 48 h, NCI-H929 cells, Celltiter-Glo
Outline: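 Luminescent ATP detection (CellTiter-Glo) after 48 hours of compound exposure measures viability. Cells were plated in RPMI 1640 containing 10% fetal bovine serum and kept at 37° C under 5% CO2.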

[9] = test system: HER3-ss+4aa/Gaussia Luciferase; assay: Dox-Induced Her3-ss-Gluc Assay; format: cell-based; conditions: 24 hr Dox induction; 293FRT/TO cells; mean; read-out: 24 hr Dox Inducible Her3(ss + 4)Gluc 293FRT/TO: Mean IC50
Outline: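 Cells were seeded a day ahead, then given compound diluted in DMSO/media with doxycycline to induce expression of the HER3 signal sequence (+4 aa)–Gaussia luciferase fusion. Incubation was at 37° C., 5% CO2, in a stable Flp-In 293 T-REx line.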

[10] = test system: multiple myeloma cell line U266B1; assay: U266 Cell Viability Assay; format: cell-based, human; conditions: Homo sapiens, U-266, 48 h, U266B1 cells, Celltiter-Glo
Outline: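 Steps: culture in RPMI 1640 plus 10% FBS and 2 mM glutamine; plate and add compound dilutions; incubate 48 hours at 37° C., 5% CO2; add CellTiter-Glo and quantify luciferase signal.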

SMILES | Liver Microsome Stability (Multiple Species): Mouse - % Remaining after 30 min w/NADPH [1] [%] | pIC50 [2] | 24 hr Dox Inducible IL2FLGluc 293FRT/TO: IL2/PD1 [2] | pIC50 [3] | Liver Microsome Stability (Multiple Species): Rat - % Remaining after 30 min w/NADPH [4] [%] | pIC50 [5] | 24 hr Dox Inducible TNFaFLGluc 293FRT/TO: TNF/PD1 [5] | Liver Microsome Stability (Multiple Species): Human - % Remaining after 30 min w/NADPH [6] [%] | Liver Microsome Stability (Multiple Species): Monkey - % Remaining after 30 min w/NADPH [7] [%] | pEC50 [8] | pIC50 [9] | pEC50 [10]
O=C(Nc1nc([C@H]2CCCN2c2ccccc2)cs1)c1cccn1CCCc1cccnc1 [Compound E10, (R)-N-(4-(1-phenylpyrrolidin-2-yl)thiazol-2-yl)-1-(3-(pyridin-3-yl)propyl)-1H-pyrrole-2-carboxamide] | 0.46 | 5.27 | 0.94 | 5.24 | 0.39 | < 4.60 | >4.34 | 0.37 | 0.06 | < 4.60 | 5.31 | < 4.60
O=C(Nc1nc(Cc2ccccn2)cs1)c1cccn1Cc1ccncc1 [Compound E11, N-(4-(pyridin-2-ylmethyl)thiazol-2-yl)-1-(pyridin-4-ylmethyl)-1H-pyrrole-2-carboxamide] | 0.36 | 5.08 | 3.8 | 5.66 | 2.06 | < 4.60 | >11.4 | 0.97 | 1.33 | < 4.60 | 5.09 | < 4.60
O=C(Nc1nc(CCc2coc(-c3ccccc3)n2)cs1)c1cccn1Cc1ccncc1 [Compound E12, N-(4-(2-(2-phenyloxazol-4-yl)ethyl)thiazol-2-yl)-1-(pyridin-4-ylmethyl)-1H-pyrrole-2-carboxamide] | 0.23 | 6.36 | 3.5 | 6.90 | 0.83 | 5.10 | 63.4 | 0.45 | 0.19 | < 4.60 | 6.67 | < 4.60
CC(c1ccncc1)n1cccc1C(=O)Nc1nc([C@H]2CCCN2c2ccccc2)cs1 (stereo partly drawn) [Compound E13, N-(4-((R)-1-phenylpyrrolidin-2-yl)thiazol-2-yl)-1-(1-(pyridin-4-yl)ethyl)-1H-pyrrole-2-carboxamide] | 1.95 | 6.74 | 3.4 | 7.27 | 10.1 | 6.08 | 15.6 | 5.08 | 0.67 | 5.23 | 6.94 | < 4.60
Cc1ccc(S(=O)(=O)N2CCC[C@@H]2c2csc(NC(=O)c3cccn3Cc3ccncc3)n2)cc1 [Compound E14, (R)-1-(pyridin-4-ylmethyl)-N-(4-(1-tosylpyrrolidin-2-yl)thiazol-2-yl)-1H-pyrrole-2-carboxamide] | 0.1 | 5.18 | 1.6 | 5.37 | 0.11 | < 4.60 | >5.90 | 0.2 | 0.11 | < 4.60 | 4.68 | < 4.60
CC(=O)N(C)C/C=C/c1csc(NC(=O)c2cccn2Cc2ccncc2)n1 [Compound E15, (E)-N-(4-(3-(N-methylacetamido)prop-1-en-1-yl)thiazol-2-yl)-1-(pyridin-4-ylmethyl)-1H-pyrrole-2-carboxamide] | 0.54 | < 4.60 | 1 | < 4.60 | 0.53 | < 4.60 |  | 0.91 | 0.11 | < 4.60 | < 4.60 | < 4.60
O=C(Nc1nc(/C=C/[C@H]2CCCCN2)cs1)c1cccn1Cc1ccncc1 [Compound E16, (R,E)-N-(4-(2-(piperidin-2-yl)vinyl)thiazol-2-yl)-1-(pyridin-4-ylmethyl)-1H-pyrrole-2-carboxamide] | 37 | < 4.60 | 1 | < 4.60 | 51.2 | < 4.60 |  | 1.56 | 0.72 | < 4.60 | < 4.60 | < 4.60
O=C(Nc1nc([C@H]2CCCN2)cs1)c1cccn1Cc1ccncc1 [Compound E17, (R)-1-(pyridin-4-ylmethyl)-N-(4-(pyrrolidin-2-yl)thiazol-2-yl)-1H-pyrrole-2-carboxamide] | 35.8 | < 4.60 | 1 | < 4.60 | 27.8 | < 4.60 |  | 35.6 | 18.1 | < 4.60 | < 4.60 | < 4.60
O=C(Nc1nc(/C=C/[C@@H]2CCCCN2)cs1)c1cccn1Cc1ccncc1 [Compound E18, (S,E)-N-(4-(2-(piperidin-2-yl)vinyl)thiazol-2-yl)-1-(pyridin-4-ylmethyl)-1H-pyrrole-2-carboxamide] | 33.5 | < 5.30 | 1 | < 5.30 | 19.4 | < 5.30 |  | 0.2 | 0.27 | < 4.60 | < 5.30 | < 4.60
O=C(Nc1nc([C@H]2CCCN2c2ccccc2)cs1)c1cccn1CCc1cccnc1 [Compound E21, (R)-N-(4-(1-phenylpyrrolidin-2-yl)thiazol-2-yl)-1-(2-(pyridin-3-yl)ethyl)-1H-pyrrole-2-carboxamide] | 0.02 | < 4.60 | >3.9 | 5.19 | 0.1 | < 4.60 | >3.86 | 0.8 | 0.23 | 4.81 | < 4.60 | 4.63

Reference: patent US20230286973A1, “PROTEIN SECRETION INHIBITORS” (KEZAR LIFE SCIENCES, priority 2020, published 2023)
